Test system: 292921-168-R-J2-PDC KRAS tumor spheroid viability
Assay: Anticancer human tumor 292921-168-R-J2-PDC patient-derived pancreatic carcinoma cell line growth inhibition [KRAS2]
Conditions: spheroids with HUVEC and MSC; for IC50: curve of first compound; for viability, T/C: stronger effect = lower value
How it was run: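 KRAS-mutant tumor cells were grown as spheroids with HUVEC endothelial cells and human MSCs as stroma. Targeted agents were tested alone and with KRAS pathway inhibitors. Doses started at or near clinical Cmax, or 10 microM, descending half-log.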
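Also: drug exposure lasted seven days after spheroids formed for three days.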
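For viability, T/C in this document: percent of DMSO vehicle control viability which is 100%.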

CC(C)n1nc(-c2ccc3oc(N)nc3c2)c2c(N)ncnc21 + COc1cc2nc(C)nc(NC(C)c3cc(N)cc(C(F)(F)F)c3)c2cc1OC1CCOC1
IC50 (second compound 0.1 µM): 3.29 nM | IC50 (second compound 0.316 µM): 3.94 nM | IC50 (second compound 1 µM): 2.72 nM | IC50 (second compound 3.16 µM): 1.34 nM | IC50 (second compound 10 µM): < 0.316 nM | viability, T/C (second compound 0.1 µM, first compound 0.000316 µM): 35% | viability, T/C (second compound 0.1 µM, first compound 0.001 µM): 74.8% | viability, T/C (second compound 0.1 µM, first compound 0.00316 µM): 46.2% | viability, T/C (second compound 0.1 µM, first compound 0.01 µM): 38.8% | viability, T/C (second compound 0.1 µM, first compound 0.0316 µM): 28.1% | viability, T/C (second compound 0.1 µM, first compound 0.1 µM): 26.2% | viability, T/C (second compound 0.316 µM, first compound 0.000316 µM): 88% | viability, T/C (second compound 0.316 µM, first compound 0.001 µM): 73.2% | viability, T/C (second compound 0.316 µM, first compound 0.00316 µM): 53.6% | viability, T/C (second compound 0.316 µM, first compound 0.01 µM): 35.7% | viability, T/C (second compound 0.316 µM, first compound 0.0316 µM): 29.4% | viability, T/C (second compound 0.316 µM, first compound 0.1 µM): 24.1% | viability, T/C (second compound 1 µM, first compound 0.000316 µM): 81.1% | viability, T/C (second compound 1 µM, first compound 0.001 µM): 68.9% | viability, T/C (second compound 1 µM, first compound 0.00316 µM): 47% | viability, T/C (second compound 1 µM, first compound 0.01 µM): 30.5% | viability, T/C (second compound 1 µM, first compound 0.0316 µM): 23.7% | viability, T/C (second compound 1 µM, first compound 0.1 µM): 21.2% | viability, T/C (second compound 3.16 µM, first compound 0.000316 µM): 64.9% | viability, T/C (second compound 3.16 µM, first compound 0.001 µM): 54.2% | viability, T/C (second compound 3.16 µM, first compound 0.00316 µM): 37.8% | viability, T/C (second compound 3.16 µM, first compound 0.01 µM): 26.3% | viability, T/C (second compound 3.16 µM, first compound 0.0316 µM): 23.8% | viability, T/C (second compound 3.16 µM, first compound 0.1 µM): 20.6% | viability, T/C (second compound 10 µM, first compound 0.000316 µM): 32.7% | viability, T/C (second compound 10 µM, first compound 0.001 µM): 26.4% | viability, T/C (second compound 10 µM, first compound 0.00316 µM): 24.3% | viability, T/C (second compound 10 µM, first compound 0.01 µM): 17.7% | viability, T/C (second compound 10 µM, first compound 0.0316 µM): 16.7% | viability, T/C (second compound 10 µM, first compound 0.1 µM): 15.5%
